This passage reports IC50 results from patent US12410161B2, “Tetrahydrobenzo-quinoline sulfonamides derivative compounds” (UCB Biopharma SRL, priority 2019, dated 2025).

The IC50 is the concentration needed to halve the response being measured.

For the assay, the target named is T1, IgE-Tb binding to soluble IgE receptor FcεRIα-Y131A-AF488 (Homo sapiens, UniProt P0DOX4, N265Q/N371Q).
T1 construct: 86 nmoles of IgE-Fc(N265Q, N371Q) (Young et al., 1995)
The assay is described as follows: In vitro FRET assay of IgE-Tb binding to FcεRIα receptor (protocol for most examples, 2 hours incubation). The note with it: 5 nM IgE-Tb, 25 nM FcεRIα-Y131A-AF488; incubated 2 hours at room temperature; read-out: FRET IC50 range. How it is done: In vitro Biochemical Assay: Protocol for preparation of IgE-Tb reagent 86 nmoles of […]) (Young et al., 1995) at 172 μM in 100 mM NaHCO3, pH 9.5 was added to 1 mg of LanthaScreenTM Amine Reactive Tb Chelate (ThermoFisher catalogue number PV3583) and incubated for 16 hours at 20° C. The material was then buffer exchanged into Phosphate Buffered Saline (being, 137 mM NaCl, 2.7 mM KCl, 10 mM Na2HPO4, 1.8 mM K2HPO4, pH 7.4) and the material quantified and the degree of Tb conjugation determined by measuring the absorption at 280 nm and 343 nm. The integrity of the conjugated material was determined by analytical size exclusion chromatography on a 5200 HR 10×300 column (GE Healthcare). Typical conjugation ratios were 4:1 Tb:IgE-Fc. • Young R J., Owens, […]., Chan C M W., Shi J., Hide […]., Henry A J., Sutton B J., and Gould H J (1995) Protein Engineering 8:193-199 Protocol for preparation of […] reagent […] Oxidation was quenched with the addition of 40 μl of ethanediol and incubation for 60 minutes at 22° C. The protein was buffer exchanged in to conjugation buffer (50 mM NaHCO3, 150 mM NaCl, pH 9.5) and concentrated to 750 μM. 175 nmoles of protein was added to 1 mg of Alexa FluorTM 488 hydrazide (Invitrogen) and incubated for 16 hours at 22° C. […] The protein was buffer exchanged into Phosphate Buffered Saline (being, 137 mM NaCl, 2.7 mM KCl, 10 mM Na2HPO4, 1.8 mM K2HPO4, pH 7.4) and the material quantified and the degree of Alexa FluorTM 488 conjugation determined by measuring the absorption at 280 nm and 495 nm. The integrity of the conjugated material was determined by analytical size exclusion chromatography on a 5200 HR 10×300 column (GE Healthcare). Typical conjugation ratios were 2:1 Alexa FluorTM488: sFcεR1α • Cook J P D., Henry […]., Owens R J., Sutton B J., and Gould H J (1997) Biochemistry 36:15579-15588 The aim was to measure binding of IgE-Tb to receptor, and the inhibition thereof by compounds, using an in vitro Fluorescence Resonance Energy Transfer (FRET) Assay. Reagents FRET reagents used were IgE labelled with Terbium (FRET donor), and soluble IgE receptor FcεRIα with a Y131A mutation, labelled with Alexa FluorTM 488 (FRET acceptor). Unlabelled FcεRIα was also used to generate a background control. The assay buffer consisted of 20 mM Tris pH7.2, 150 mM NaCl, and 0.002% Tween, 1% DMSO. Assay Reaction For most of the examples the assay was conducted according to the following: Each assay reaction was conducted in a volume of 25 μl in a 384-well half-volume plate. 10 point compound serial dilutions (3-fold) were generated in DMSO at a concentration of ×50 that of the final assay concentration (FAC). Compound solutions were then prepared by IgE-Tb diluting 10-fold in assay buffer. For the assay, 5 μl of diluted compound was added to 10 μl of IgE-Tb, followed by addition of 10111 FcεRIα-Y131A-AF488. FRET reagents FACs were 5 nM IgE-Tb, 25 nM FcεRIα-Y131A-AF488. Usually the top FAC of compound in the assay was 10 μM. The final DMSO concentration was 2%. The minimum signal (MIN) was measured by adding 5 μl unlabelled FcεRIα at 1 μM (FAC=200 nM) to the FRET reagents. The maximum FRET signal (MAX) was measured in wells containing FRET reagents but no compound. The assay was incubated for 2 hours at room temperature, protected from light and evaporation, and with gentle agitation. FRET Measurement Measurement of FRET for each well was carried out by exciting at 330 nm and measuring emission at 495/520 nm using an Envision plate reader (Perkin Elmer). FRET ratio was calculated as follows: Emission at 520/Emission at 495×1000. The FRET ratio was used for the data analysis. Data Analysis Z' was calculated as follows (σ=standard deviation and μ=mean): 1-((3×σMAX)+(3×σMIN))/(μMAX-/μMIN) Z' above 0.5 was considered a good assay. Background signal (MIN) was subtracted from all wells. Using the background subtracted values, the percent inhibition by compound in each test-well was calculated as follows: 100-Test-well FRET ratio/MAX FRET ratio×100. […]

T1 sequence (P0DOX4 224-547 N265Q/N371Q limits assumed): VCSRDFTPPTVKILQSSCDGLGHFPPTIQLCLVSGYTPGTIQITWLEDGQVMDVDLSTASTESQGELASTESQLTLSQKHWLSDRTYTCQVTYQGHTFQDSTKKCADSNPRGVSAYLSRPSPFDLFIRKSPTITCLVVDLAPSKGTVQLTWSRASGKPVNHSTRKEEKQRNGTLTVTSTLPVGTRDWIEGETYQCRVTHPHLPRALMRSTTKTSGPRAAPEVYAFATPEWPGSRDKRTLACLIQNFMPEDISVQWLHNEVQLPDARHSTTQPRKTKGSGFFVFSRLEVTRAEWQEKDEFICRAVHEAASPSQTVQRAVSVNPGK

On to `CC(C)CNS(=O)(=O)c1c2c(cc3cnc(C4CC4)cc13)CCC(n1cnnc1NCC1CC1)C2` (stereo not shown) [Example 16, 3-cyclopropyl-7-[3-(cyclopropylmethylamino)-1,2,4-triazol-4-yl]-N-(2-methylpropyl)-6,7,8,9-tetrahydrobenzo[g]isoquinoline-5-sulfonamide], for which the IC50 was 1 to 50 nM.

As for `Cc1cc(-n2ccnc2NC2CCc3cc4cnc(C5CC5)cc4c(S(=O)(=O)NCC(C)C)c3C2)n(C)n1` (stereo not shown) [Example 20, 3-cyclopropyl-74(1-(2,5-dimethylpyrazol-3-yl)imidazol-2-yl]aminol-N-(2-methylpropyl)-6,7,8,9-tetrahydrobenzo[g]isoquinoline-5-sulfonamide], the 50% inhibitory concentration (IC50) was 100 to 1000 nM.

Turning to `Cc1nnc(-c2ccc(N[C@H]3CCc4cc5cnc(C6CC6)cc5c(S(=O)(=O)NCC(C)C)c4C3)cn2)o1` [Example 18, (7S)-3-cyclopropyl-7-[[6-(5-methyl-1,3,4-oxadiazol-2-yl)pyridin-3-yl]amino]-N-(2-methylpropyl)-6,7,8,9-tetrahydrobenzo[g]isoquinoline-5-sulfonamide], the 50% inhibitory concentration (IC50) was in the range of 50 to 100 nM.

Take `Cc1ccc2c(C(=O)NC3CCc4cc5cnc(C6CC6)cc5c(S(=O)(=O)NCC(C)C)c4C3)c[nH]c2c1` (stereo not shown) [Example 11, N-[3-cyclopropyl-5-(2-methylpropylsulfamoyl)-6,7,8,9-tetrahydrobenzo[g]isoquinolin-7-yl]-6-methyl-1H-indole-3-carboxamide]: the IC50 lay in the range of 100 to 1000 nM.

Turning to `Cc1cc(Nc2nncn2C2CCc3c(cc4cnc(C5CC5)cc4c3S(=O)(=O)NCC(C)(C)F)C2)n(C)n1` (stereo not shown) [Example 23, 3-cyclopropyl-8-[3-[(2,5-dimethylpyrazol-3-yl)amino]-1,2,4-triazol-4-yl]-N-(2-fluoro-2-methylpropyl)-6,7,8,9-tetrahydrobenzo[g]isoquinoline-5-sulfonamide], the IC50 fell in the range of 100 to 2000 nM.

For the compound `Cc1ccc(N/C(=N/C#N)NC2CCc3cc4cnc(C5CC5)cc4c(S(=O)(=O)NCC(C)(C)F)c3C2)cc1` (stereo not shown) [Example 3, 2-Cyano-1-[3-cyclopropyl-5-[(2-fluoro-2-methyl-propyl)sulfamoyl]-6,7,8,9-tetrahydrobenzo[g]isoquinolin-7-yl]-3-(p-tolyl)guanidine], the IC50 lay within 100 to 1000 nM.

As to `Cc1nnc(-c2ccc(N[C@@H]3CCc4cc5cnc(C6CC6)cc5c(S(=O)(=O)NCC(C)C)c4C3)cn2)o1` [Example 17, (7R)-3-cyclopropyl-7-[[6-(5-methyl-1,3,4-oxadiazol-2-yl)pyridin-3-yl]amino]-N-(2-methylpropyl)-6,7,8,9-tetrahydrobenzo[g]isoquinoline-5-sulfonamide], the half-inhibitory concentration (IC50) was 100 to 1000 nM.

On to `Cc1cc(Nc2nncn2C2CCc3cc4cnc(C5CC5)cc4c(S(=O)(=O)NCC(C)(C)F)c3C2)n(C)n1` (stereo not shown) [Example 2, 3-cyclopropyl-7-[3-[(2,5-dimethylpyrazol-3-yl)amino]-1,2,4-triazol-4-yl]-N-(2-fluoro-2-methylpropyl)-6,7,8,9-tetrahydrobenzo[g]isoquinoline-5-sulfonamide], for which the IC50 was 100 to 1000 nM.

With `CCNc1c(NC2CCc3cc4cnc(C5CC5)cc4c(S(=O)(=O)NCC(C)C)c3C2)c(=O)c1=O` (stereo not shown) [Example 19, 3-cyclopropyl-7-[[2-(ethylamino)-3,4-dioxocyclobuten-1-yl]amino]-N-(2-methylpropyl)-6,7,8,9-tetrahydrobenzo[g]isoquinoline-5-sulfonamide], the IC50 was 1 to 50 nM.

Turning to `Cc1cc(-n2cnnc2NC2CCc3c(cc4cnc(C5CC5)cc4c3S(=O)(=O)NCC(C)(C)F)C2)n(C)n1` (stereo not shown) [Example 24, 3-cyclopropyl-8-[[4-(2,5-dimethylpyrazol-3-yl)-1,2,4-triazol-3-yl]amino]-N-(2-fluoro-2-methyl-propyl)-6,7,8,9-tetrahydrobenzo[g]isoquinoline-5-sulfonamide formic acid], the IC50 is 100 to 2000 nM.

As for `CC(C)CNS(=O)(=O)c1c2c(cc3cnc(C4CC4)cc13)CCC(c1ncc(-c3cccnc3)[nH]1)C2` (stereo not shown) [Example 21, 3-cyclopropyl-N-(2-methylpropyl)-7-(5-pyridin-3-yl-1H-imidazol-2-yl)-6,7,8,9-tetrahydrobenzo[g]isoquinoline-5-sulfonamide], the half-maximal inhibitory concentration (IC50) fell in the range of 1 to 50 nM.

For the compound `Cc1cc(-n2cnnc2NC2CCc3cc4cnc(C5CC5)cc4c(S(=O)(=O)NCC(C)C)c3C2)n(C)n1` (stereo not shown) [Example 12, 3-cyclopropyl-7-[[4-(2,5-dimethylpyrazol-3-yl)-1,2,4-triazol-3-yl]amino]-N-(2-methylpropyl)-6,7,8,9-tetrahydrobenzo[g]isoquinoline-5-sulfonamide], the IC50 fell in the range of 100 to 1000 nM.

As for `CC(C)CNS(=O)(=O)c1c2c(cc3cnc(C4CC4)cc13)CCC(n1cnnc1Nc1cccnc1)C2` (stereo not shown) [Example 14, 3-cyclopropyl-N-(2-methylpropyl)-7-[3-(pyridin-3-ylamino)-1,2,4-triazol-4-yl]-6,7,8,9-tetrahydrobenzo[g]isoquinoline-5-sulfonamide], the IC50 lay in the range of 1 to 50 nM.

`Cc1nnc(-c2ccc(NC3CCc4cc5cnc(C6CC6)cc5c(S(=O)(=O)NCC(C)(C)F)c4C3)cn2)o1` (stereo not shown) [Example 4, 3-cyclopropyl-N-(2-fluoro-2-methylpropyl)-7-[[6-(5-methyl-1,3,4-oxadiazol-2-yl)pyridin-3-yl]amino]-6,7,8,9-tetrahydrobenzo[g]isoquinoline-5-sulfonamide]: the half-inhibitory concentration (IC50) was in the range of 100 to 1000 nM.

On to `Cc1cc(Nc2nncn2C2CCc3cc4cnc(C5CC5)cc4c(S(=O)(=O)NCC(C)C)c3C2)n(C)n1` (stereo not shown) [Example 13, 3-cyclopropyl-7-[3-[(2,5-dimethylpyrazol-3-yl)amino]-1,2,4-triazol-4-yl]-N-(2-methylpropyl)-6,7,8,9-tetrahydrobenzo[g]isoquinoline-5-sulfonamide], for which the IC50 lay within 1 to 50 nM.

For the compound `CC(C)CNS(=O)(=O)c1c2c(cc3cnc(C4CC4)cc13)CC(C(=O)NCc1ccccc1)CC2` (stereo not shown) [Example 7, N-benzyl-3-cyclopropyl-5-(2-methylpropylsulfamoyl)-6,7,8,9-tetrahydrobenzo[g]isoquinoline-8-carboxamide], the IC50 lay within 100 to 1000 nM.

In the case of `CC(C)CNS(=O)(=O)c1c2c(cc3cnc(C4CC4)cc13)CCC(C(=O)NCC(C)(C)C)C2` (stereo not shown) [Example 5, 3-cyclopropyl-N-(2,2-dimethylpropyl)-5-(2-methylpropylsulfamoyl)-6,7,8,9-tetrahydrobenzo[g]isoquinoline-7-carboxamide], the IC50 was 50 to 100 nM.

As to `CC(C)CNS(=O)(=O)c1c2c(cc3cnc(C4CC4)cc13)CCC(Nc1nncn1-c1cccnc1)C2` (stereo not shown) [Example 15, 3-cyclopropyl-N-(2-methylpropyl)-7-[(4-pyridin-3-yl-1,2,4-triazol-3-yl)amino]-6,7,8,9-tetrahydrobenzo[g]isoquinoline-5-sulfonamide], the IC50 lay in the range of 100 to 1000 nM.

Regarding `CC(C)CNS(=O)(=O)c1c2c(cc3cnc(C4CC4)cc13)CC(c1ncc(-c3cccnc3)[nH]1)CC2` (stereo not shown) [Example 22, 3-cyclopropyl-N-(2-methylpropyl)-8-(5-pyridin-3-yl-1H-imidazol-2-yl)-6,7,8,9-tetrahydrobenzo[g]isoquinoline-5-sulfonamide], the half-maximal inhibitory concentration (IC50) was in the range of 100 to 1000 nM.
